From patent US9883691B2, “Food and beverage products containing 1,3-propanediol and methods of modifying flavor release using 1,3-propanediol” (Kraft Foods Group Brands LLC, priority 2012, dated 2018)

How the values were obtained:
Type in all cases: physicochemical
[1] = PTR-MS real-time headspace release, watermelon flavor model in water (Example 1); set-up: Sample A (PG) Mean / Sample B (1,3-propanediol) Mean: unit not given here; details: for Sample B (1,3-propanediol) Mean / Sample A (PG) Mean: PTR-MS headspace, diluted in water, 90 minutes equilibration, mean of three; for Sample B (1,3-propanediol) Mean: watermelon flavor concentrate in 1,3-propanediol; for Sample A (PG) Mean: watermelon flavor concentrate in propylene glycol; for Percent Release Difference: Sample B (1,3-propanediol) relative to Sample A (PG)
Experimental: The impact of 1,3-propanediol on the release of flavor compounds can be analyzed by Proton Transfer Reaction Mass Spectrometry (PTR-MS; model TOF-8000 from Ionicon Analytik Inc.), where real-time headspace release of volatiles is measured. A sampling apparatus is needed in conjunction with the PTR-MS inlet to prevent variations caused by headspace kinetics. By one exemplary approach, the sampling apparatus includes a 4 ounce sample vessel equipped with a 2-hole lid which may be sealed by an adhesive film to allow equilibration. […]. The holes are equal sized (˜2 mm diameter) and match the outer diameter of the PTR-MS inlet line. The flow of the dilution gas into the vessel is regulated by the vacuum and proportional valve of the PTR-MS inlet system. The sample vessel has a base diameter of 47 mm and is 45 mm high, of which 8 mm of height is occupied by the sample in the vessel in these experiments. The 2 holes in the lid are equidistant from the edge of the vessel (˜20 mm) and about 30 mm from each other. The PTR-MS inlet is braced by clamps in a fixed position vertically above the laboratory bench (˜55 mm) and a silicone rubber depth gauge is affixed to the PTR-MS inlet tubing and set at 18 mm. The PTR-MS inlet is thus consistently oriented in a vertical position 18 mm below the inside lid of the vessel and 19 mm above the sample in the vessel. The sample vessel is then held in place during sampling according to the depth gauge on the inlet line and the vessel is subsequently supported on the bench by a 10 mm plastic spacer.
15 grams of the sample to be tested (e.g., food or beverage product containing 1,3-propanediol) are added to the vessel. The vessel is sealed and allowed to equilibrate at room temperature (˜22° C.) for 90 minutes. At the time of sampling, the seal is removed from both the sampling hole and the dilution gas hole in the lid and the vessel is immediately affixed to the PTR-MS inlet via the sampling hole. The real-time released flavor is measured from the headspace of the sample vessel for two minutes (according to the conditions listed in Table 1 below). A comparative sample is prepared that is otherwise identical to the test sample but contains propylene glycol or water instead of 1,3-propanediol. The comparative sample is then analyzed in triplicate by PTR-MS using the above-described procedure. The data can be analyzed using PTR-MS Viewer, Version 3.0.0.101 (Ionicon Analytik G.m.b.H). The point of maximum intensity for each compound of interest can be determined and recorded according to the PTR-MS Viewer software. The maximum intensity in counts over the timescale for each compound of interest can be used for data analysis as it reflects the static equilibrium headspace concentration in the system at the moment of seal removal. Due to the necessity of a dilution gas, the volatile concentration decreases over time as the compounds of interest re-equilibrate to a state of dynamic equilibrium in the headspace.
[…]. Sample A was prepared with 20 grams watermelon flavor concentrate and 80 grams propylene glycol. Sample B was prepared with 20 grams watermelon flavor concentrate and 80 grams 1,3-propanediol. Each of the samples was further diluted by adding 0.08 grams of each diluted concentrate to 99.92 grams water to provide a flavor water solution.
The diluted samples were analyzed by Proton Transfer Reaction Mass Spectrometry (PTR-MS; model TOF-8000 from Ionicon Analytik Inc.) for real-time headspace release volatiles measurement. Samples were analyzed in triplicate. […]. […].

[2] = PTR-MS headspace release at various flavor compound to 1,3-propanediol or PG ratios (Example 2); details: for effect of 1,3-propanediol on release: flavor/1,3-propanediol ratio of 0.05:100; for release suppressed in the presence of 1,3-propanediol: 10% cut-off for significant difference, relative to PG; for Percent Suppression by 1,3-propanediol: (IZ−IPG)/IPG×100
Experimental: The compounds listed below in Table 3 were added together to provide a liquid flavoring to analyze the role, if any, of the amount of 1,3-propanediol on flavor release. […] The amount of each flavor compound in the beverage was held constant at 8 ppm except furfuryl mercaptan was included at 1.6 ppm while the amount of propylene glycol or 1,3-propanediol varied.
The percent suppression was calculated using the following formula: (IZ−IPG)/IPG×100, where I is peak height, “Z” is 1,3-propanediol and “PG” is propylene glycol.

[3] = PTR-MS headspace release with various non-aqueous liquids (diols) at 0.05:100 (Example 3); details: ratio 0.05:100; for PTR-MS headspace release in 1,3-butanediol: non-aqueous liquid 1,3-butanediol; for PTR-MS headspace release in 1,3-butanediol / PTR-MS headspace release in 1,3-propanediol / PTR-MS headspace release in 1,4-butanediol / PTR-MS headspace release in 1,7-heptanediol / PTR-MS headspace release in Propylene glycol: diluted in water; for PTR-MS headspace release in 1,3-propanediol: non-aqueous liquid 1,3-propanediol; for PTR-MS headspace release in 1,4-butanediol: non-aqueous liquid 1,4-butanediol; for PTR-MS headspace release in 1,7-heptanediol: non-aqueous liquid 1,7-heptanediol; for PTR-MS headspace release in Propylene glycol: non-aqueous liquid propylene glycol
Experimental: […]. The flavoring was then diluted in water for analysis. The final concentration of each compound was held constant at 8 ppm except furfuryl mercaptan was included at 1.6 ppm to maintain a constant flavor level in the resulting beverage while the non-aqueous liquid varied but the ratio of each compound to non-aqueous liquid was held constant at 0.05:100. A variety of non-aqueous liquids were evaluated, including 1,4-butandiol; 1,7-heptandiol; 1,3-butandiol, propylene glycol, and 1,3-propanediol.
Samples were analyzed by PTR-MS as described in Example 1.
Percent suppression was calculated by the following formula: (I1-3-diol−Ialternate diol)/Ialternate diol×100.

[4] = PTR-MS headspace release in neat solvent, solvent/solvent experiment (Example 5); set-up: key to Release Differences: “Z” indicates that 1,3-propanediol had higher equilibrium maximum (meaning more of the flavor was released in 1,3-propanediol); “P” indicates that propylene glycol had higher equilibrium maximum; “-” indicates no statistical difference (95% significance) between the two samples; details: 1.5 hrs equilibration
Experimental: […]. Then the head space was analyzed as described above.
0.86 grams of the concentrate was added to 100 grams of either propylene glycol or 1,3-propanediol to provide a 1,3-propanediol diluted concentrate or propylene glycol diluted concentrate. The diluted concentrates were then further diluted as outlined in Table 10 below.
A 15 gram sample was weighed into a 4 oz vessel and analyzed at 1.5 hrs. of equilibration time as described in the method of Example 4.

[5] = ratio 0.005:100, negative = suppressed vs PG

O=CCc1ccccc1 [Phenyl acetaldehyde]
Sample B (1,3-propanediol) Mean [1]: 0.78
Sample A (PG) Mean [1]: 0.80
Percent Release Difference [1]: −2.5%

CCCCCCCCCC(=O)O [Decanoic acid]
effect of 1,3-propanediol on release [2]: minimal effect
PTR-MS headspace release in 1,3-butanediol [3]: 0.6
PTR-MS headspace release in 1,3-propanediol [3]: 0.20
PTR-MS headspace release in 1,4-butanediol [3]: 1.4
PTR-MS headspace release in 1,7-heptanediol [3]: 1.0
PTR-MS headspace release in Propylene glycol [3]: 0.25

CC(C=O)Cc1ccc(C(C)C)cc1 (centres unmarked) [Cyclamen aldehyde]
Sample B (1,3-propanediol) Mean [1]: 0.36
Sample A (PG) Mean [1]: 0.40
Percent Release Difference [1]: −10.0%

CC(=O)CCc1ccc(O)cc1 [Raspberry ketone]
Sample B (1,3-propanediol) Mean [1]: 0.04
Sample A (PG) Mean [1]: 0.07
Percent Release Difference [1]: −48.1%

C/C=C\C(=O)C1C(C)=CCCC1(C)C (stereo not drawn) [Alpha damascone]
Sample B (1,3-propanediol) Mean [1]: 0.57
Sample A (PG) Mean [1]: 0.82
Percent Release Difference [1]: −30.6%

CCC(C)COC(C)=O (centres unmarked) [2-methylbutyl acetate]
Sample B (1,3-propanediol) Mean [1]: 4.27
Sample A (PG) Mean [1]: 5.30
Percent Release Difference [1]: −19.5%

CCCCCCO [Hexanol]
Release Differences ([4]; 1,3-propanediol versus propylene glycol as sole solvent, 95% significance): Z
release in 1,3-propanediol versus propylene glycol, solvent/solvent [4]: released faster in 1,3-propanediol
release suppressed in the presence of 1,3-propanediol [2]: suppressed
Percent Suppression by 1,3-propanediol [2, 5]: −3.6%
Percent Suppression by 1,3-propanediol ([2]; ratio 0.05:100): −45.9%
Percent Suppression by 1,3-propanediol ([2]; ratio 5:100): −9.8%
Percent Suppression by 1,3-propanediol ([2]; ratio 15:100): −20.0%
PTR-MS headspace release in 1,3-butanediol [3]: 0.3
PTR-MS headspace release in 1,3-propanediol [3]: 0.20
PTR-MS headspace release in 1,4-butanediol [3]: 0.5
PTR-MS headspace release in 1,7-heptanediol [3]: 0.3
PTR-MS headspace release in Propylene glycol [3]: 0.37
Percent suppression by 1,3-butanediol relative to 1,4-butanediol [3]: −50.0%

CCCCCCC(C=O)=Cc1ccccc1 [Hexyl cinnamic aldehyde]
Sample B (1,3-propanediol) Mean [1]: 1.32
Sample A (PG) Mean [1]: 0.95
Percent Release Difference [1]: 38.8%

COc1cc(C=O)ccc1O [Vanillin]
Sample B (1,3-propanediol) Mean [1]: 0.05
Sample A (PG) Mean [1]: 0.05
Percent Release Difference [1]: 3.4%

OCCCO [1,3-propanediol]
flavor retention compared to use of propylene glycol ([1]; watermelon flavor model, Table 2): generally resulted in increased flavor retention

CCO [Ethanol]
release suppressed in the presence of 1,3-propanediol [2]: suppressed
effect of 1,3-propanediol on release [2]: significant suppression effect
Percent Suppression by 1,3-propanediol [2, 5]: 11.9%
Percent Suppression by 1,3-propanediol ([2]; ratio 0.05:100): −34.8%
Percent Suppression by 1,3-propanediol ([2]; ratio 5:100): −12.1%
Percent Suppression by 1,3-propanediol ([2]; ratio 15:100): −0.9%
Sample B (1,3-propanediol) Mean [1]: 24.50
Sample A (PG) Mean [1]: 22.17
Percent Release Difference [1]: 10.5%
PTR-MS headspace release in 1,3-butanediol [3]: 20.7
PTR-MS headspace release in 1,3-propanediol [3]: 18.60
PTR-MS headspace release in 1,4-butanediol [3]: 27.5
PTR-MS headspace release in 1,7-heptanediol [3]: 24.5
PTR-MS headspace release in Propylene glycol [3]: 28.52

CC(C)CC=O [Isovaleraldehyde]
Percent Suppression by 1,3-propanediol [2, 5]: 3.7%
Percent Suppression by 1,3-propanediol ([2]; ratio 0.05:100): −1.3%
Percent Suppression by 1,3-propanediol ([2]; ratio 5:100): −22.2%
Percent Suppression by 1,3-propanediol ([2]; ratio 15:100): −2.6%
PTR-MS headspace release in 1,3-butanediol [3]: 40.9
PTR-MS headspace release in 1,3-propanediol [3]: 12.35
PTR-MS headspace release in 1,4-butanediol [3]: 62.5
PTR-MS headspace release in 1,7-heptanediol [3]: 63.5
PTR-MS headspace release in Propylene glycol [3]: 12.51
Percent suppression by 1,3-butanediol relative to 1,4-butanediol [3]: −53.0%

CCc1occc(=O)c1O [Ethyl maltol]
Sample B (1,3-propanediol) Mean [1]: 1.25
Sample A (PG) Mean [1]: 1.25
Percent Release Difference [1]: 0.0%

CCOC(C)=O [Ethyl acetate]
Sample B (1,3-propanediol) Mean [1]: 1410
Sample A (PG) Mean [1]: 1797
Percent Release Difference [1]: −21.5%

CCCC(=O)O [Butyric acid]
effect of 1,3-propanediol on release [2]: minimal effect
Percent Suppression by 1,3-propanediol [2, 5]: 7.5%
Percent Suppression by 1,3-propanediol ([2]; ratio 0.05:100): 8.0%
Percent Suppression by 1,3-propanediol ([2]; ratio 5:100): −18.4%
Percent Suppression by 1,3-propanediol ([2]; ratio 15:100): −6.0%
PTR-MS headspace release in 1,3-butanediol [3]: 91.7
PTR-MS headspace release in 1,3-propanediol [3]: 30.25
PTR-MS headspace release in 1,4-butanediol [3]: 143.8
PTR-MS headspace release in 1,7-heptanediol [3]: 140.0
PTR-MS headspace release in Propylene glycol [3]: 28.00
Percent suppression by 1,3-butanediol relative to 1,4-butanediol [3]: −56.8%

OCCCCCCCO [1,7-heptandiol, reference compound]
flavor release with the non-aqueous liquid relative to comparative diol [3]: faster release than propylene glycol

CCC/C=C/C(=O)O [Trans-2-hexenoic acid]
Sample B (1,3-propanediol) Mean [1]: 0.86
Sample A (PG) Mean [1]: 1.06
Percent Release Difference [1]: −18.3%
